In US9827235B2, “Pharmaceutical compositions comprising antibacterial agents” (WOCKHARDT LIMITED, priority 2013, dated 2017):
Where two headings read alike, the source gives them in different places.

Tests used:
Type in all cases: cell-based
E. coli M 44 = assay: MIC on Muller Hinton Agar (CLSI); settings: Escherichia coli
Protocol: (§1) The antibacterial activity of combinations according to the invention was investigated against various bacterial strains. In a typical study, minimum inhibitory concentrations (MIC) were determined using Muller Hinton Agar (MHA) (BD, USA) according to Clinical and Laboratory Standards Institute (CLSI) recommendations, (Clinical and Laboratory Standards Institute (CLSI), Performance Standards for Antimicrobial Susceptibility Testing, 20th Informational Supplement, M 100-S20, Volume 30, No. 1, 2010). In short, the inocula were adjusted to deliver about 10^4 colony forming units (CFU) per spot with a multipoint inoculator (Applied Quality Services, UK). The plates were pored with doubling concentration range of the test combinations according to invention containing MHA. The plates were inoculated and were incubated at 35° C. for 18 hours.

E. coli S 16 = assay: MIC on Muller Hinton Agar (CLSI); settings: Escherichia coli
Protocol: as §1

E. coli S 30 = assay: MIC on Muller Hinton Agar (CLSI); settings: Escherichia coli
Protocol: as §1

E. coli S 330 = assay: MIC on Muller Hinton Agar (CLSI); settings: Escherichia coli
Protocol: as §1

E. coli S 33 = assay: MIC on Muller Hinton Agar (CLSI); settings: Escherichia coli
Protocol: as §1

E. coli S 35 = assay: MIC on Muller Hinton Agar (CLSI); settings: Escherichia coli
Protocol: as §1

K. pneumoniae B 77 = assay: MIC on Muller Hinton Agar (CLSI); settings: Klebsiella pneumoniae
Protocol: as §1

K. pneumoniae B 88 = assay: MIC on Muller Hinton Agar (CLSI); settings: Klebsiella pneumoniae
Protocol: as §1

K. pneumoniae M 3 = assay: MIC on Muller Hinton Agar (CLSI); settings: Klebsiella pneumoniae
Protocol: as §1

K. pneumoniae NCTC 13439 = assay: MIC on Muller Hinton Agar (CLSI); settings: Klebsiella pneumoniae
Protocol: as §1

K. pneumoniae S 48 = assay: MIC on Muller Hinton Agar (CLSI); settings: Klebsiella pneumoniae
Protocol: as §1

K. pneumoniae S 50 = assay: MIC on Muller Hinton Agar (CLSI); settings: Klebsiella pneumoniae
Protocol: as §1

[1] = tested on: P. aeruginosa H 113720186; assay: MIC on Muller Hinton Agar (CLSI); settings: Pseudomonas aeruginosa
Protocol: as §1

P. aeruginosa Q-111 = assay: MIC on Muller Hinton Agar (CLSI); settings: Pseudomonas aeruginosa
Protocol: as §1

P. aeruginosa S 504 = assay: MIC on Muller Hinton Agar (CLSI); settings: Pseudomonas aeruginosa
Protocol: as §1

P. aeruginosa S 508 = assay: MIC on Muller Hinton Agar (CLSI); settings: Pseudomonas aeruginosa
Protocol: as §1

P. aeruginosa S 513 = assay: MIC on Muller Hinton Agar (CLSI); settings: Pseudomonas aeruginosa
Protocol: as §1

[2] = tested on: clinical isolate of K. pneumoniae B 88 producing metallo beta-lactamases [SHV, TEM, NDM-1]; assay: Time kill study; settings: for Bacterial count: each agent at 8 mcg/ml, initial count 6.18 log CFU/ml
Protocol: (§2) Typically, freshly grown cultures were diluted to the required cell density (initial starting inoculum) in Cation adjusted Muller Hinton broth medium BD, USA). The antibacterial agents at the required concentrations were added into the culture-containing medium either alone or in combination. The samples were incubated under shaking condition (120 rpm) at 37° C. Enumeration of viable bacterial count was undertaken, every 2 hour, by diluting in normal saline and plating on to the Tryptic Soya Agar plates (BD, USA). The plates were incubated for 24 hours to arrive at the viable bacterial count. […] The decrease of 1 Log CFU/ml, after administration of combination of present invention, in comparison to initial bacterial count corresponds to 90% killing of bacteria. Similarly, 2 Log CFU/ml reductions corresponds to 99% killing of bacteria and 3 Log CFU/ml reductions is equal to 99.9% killing of bacteria.

[3] = tested on: clinical isolate of K. pneumoniae S 48 producing metallo beta-lactamases [SHV, TEM, NDM-1]; assay: Time kill study; settings: for Bacterial count: each agent at 8 mcg/ml, initial count 6.84 log CFU/ml
Protocol: as §2

[4] = tested on: highly resistant strains of E. coli, K. pneumonia and P. aeruginosa; assay: MIC, summary over the strain panel
Protocol: as §1

[5] = used alone at 8 mcg/ml, at the end of 6 hours

## CO/N=C(\C(=O)N[C@@H]1C(=O)N2C(C(=O)[O-])=C(C[N+]3(C)CCCC3)CS[C@H]12)c1csc(N)n1 [Cefepime, cefepime]
E. coli M 44; M44, agent alone, enzymes TEM, NDM-1, read-out: MIC
  MIC: > 32 µg/mL
E. coli M 44; M44, with compound of Formula (I) at 8 mcg/ml, read-out: MIC (mcg/ml) of cefepime in presence of a compound of Formula (I) (8 mcg/ml)
  MIC: ≤ 0.015 µg/mL
E. coli S 16; S16, agent alone, enzymes CMY type, TEM, DHA, read-out: MIC
  MIC: > 32 µg/mL
E. coli S 16; S16, with compound of Formula (I) at 8 mcg/ml, read-out: MIC (mcg/ml) of cefepime in presence of a compound of Formula (I) (8 mcg/ml)
  MIC: ≤ 0.015 µg/mL
E. coli S 30; S30, agent alone, enzymes CMY type, TEM, NDM-1, read-out: MIC
  MIC: > 32 µg/mL
E. coli S 30; S30, with compound of Formula (I) at 8 mcg/ml, read-out: MIC (mcg/ml) of cefepime in presence of a compound of Formula (I) (8 mcg/ml)
  MIC: ≤ 0.015 µg/mL
E. coli S 330; S330, agent alone, enzymes NDM, read-out: MIC
  MIC: > 32 µg/mL
E. coli S 330; S330, with compound of Formula (I) at 8 mcg/ml, read-out: MIC (mcg/ml) of cefepime in presence of a compound of Formula (I) (8 mcg/ml)
  MIC: ≤ 0.015 µg/mL
E. coli S 33; S33, agent alone, enzymes TEM, NDM-1, read-out: MIC
  MIC: > 32 µg/mL
E. coli S 33; S33, with compound of Formula (I) at 8 mcg/ml, read-out: MIC (mcg/ml) of cefepime in presence of a compound of Formula (I) (8 mcg/ml)
  MIC: ≤ 0.015 µg/mL
E. coli S 35; S35, agent alone, enzymes TEM, NDM-1, read-out: MIC
  MIC: > 32 µg/mL
E. coli S 35; S35, with compound of Formula (I) at 8 mcg/ml, read-out: MIC (mcg/ml) of cefepime in presence of a compound of Formula (I) (8 mcg/ml)
  MIC: ≤ 0.015 µg/mL
K. pneumoniae B 77; B77, agent alone, enzymes SHV, TEM, NDM-1, read-out: MIC
  MIC: > 32 µg/mL
K. pneumoniae B 77; B77, with compound of Formula (I) at 8 mcg/ml, read-out: MIC (mcg/ml) of cefepime in presence of a compound of Formula (I) (8 mcg/ml)
  MIC: ≤ 0.25 µg/mL
K. pneumoniae B 88; B88, agent alone, enzymes SHV, TEM, NDM-1, read-out: MIC
  MIC: > 32 µg/mL
K. pneumoniae B 88; B88, with compound of Formula (I) at 8 mcg/ml, read-out: MIC (mcg/ml) of cefepime in presence of a compound of Formula (I) (8 mcg/ml)
  MIC: ≤ 0.015 µg/mL
K. pneumoniae M 3; M3, agent alone, enzymes SHV, CTXM, TEM, NDM-1, read-out: MIC
  MIC: > 32 µg/mL
K. pneumoniae M 3; M3, with compound of Formula (I) at 8 mcg/ml, read-out: MIC (mcg/ml) of cefepime in presence of a compound of Formula (I) (8 mcg/ml)
  MIC: ≤ 0.015 µg/mL
K. pneumoniae NCTC 13439; NCTC13439, agent alone, enzymes VIM-1, read-out: MIC
  MIC: > 32 µg/mL
K. pneumoniae NCTC 13439; NCTC13439, with compound of Formula (I) at 8 mcg/ml, read-out: MIC (mcg/ml) of cefepime in presence of a compound of Formula (I) (8 mcg/ml)
  MIC: 1 µg/mL
K. pneumoniae S 48; S48, agent alone, enzymes SHV, TEM, NDM-1, read-out: MIC
  MIC: > 32 µg/mL
K. pneumoniae S 48; S48, with compound of Formula (I) at 8 mcg/ml, read-out: MIC (mcg/ml) of cefepime in presence of a compound of Formula (I) (8 mcg/ml)
  MIC: ≤ 0.015 µg/mL
K. pneumoniae S 50; S50, agent alone, enzymes SHV, TEM, NDM-1, read-out: MIC
  MIC: > 32 µg/mL
K. pneumoniae S 50; S50, with compound of Formula (I) at 8 mcg/ml, read-out: MIC (mcg/ml) of cefepime in presence of a compound of Formula (I) (8 mcg/ml)
  MIC: ≤ 0.015 µg/mL
[1]; H113720186, agent alone, enzymes IMP, read-out: MIC
  MIC: > 32 µg/mL
[1]; H113720186, with compound of Formula (I) at 8 mcg/ml, read-out: MIC (mcg/ml) of cefepime in presence of a compound of Formula (I) (8 mcg/ml)
  MIC: ≤ 0.5 µg/mL
P. aeruginosa Q-111; Q111, agent alone, enzymes OXA-4, OXA-11, read-out: MIC
  MIC: > 32 µg/mL
P. aeruginosa Q-111; Q111, with compound of Formula (I) at 8 mcg/ml, read-out: MIC (mcg/ml) of cefepime in presence of a compound of Formula (I) (8 mcg/ml)
  MIC: ≤ 0.06 µg/mL
P. aeruginosa S 504; S504, agent alone, enzymes VIM-6, read-out: MIC
  MIC: > 32 µg/mL
P. aeruginosa S 504; S504, with compound of Formula (I) at 8 mcg/ml, read-out: MIC (mcg/ml) of cefepime in presence of a compound of Formula (I) (8 mcg/ml)
  MIC: ≤ 0.06 µg/mL
P. aeruginosa S 508; S508, agent alone, enzymes VIM-11, read-out: MIC
  MIC: > 32 µg/mL
P. aeruginosa S 508; S508, with compound of Formula (I) at 8 mcg/ml, read-out: MIC (mcg/ml) of cefepime in presence of a compound of Formula (I) (8 mcg/ml)
  MIC: ≤ 0.06 µg/mL
P. aeruginosa S 513; S513, agent alone, enzymes VIM-6, read-out: MIC
  MIC: > 32 µg/mL
P. aeruginosa S 513; S513, with compound of Formula (I) at 8 mcg/ml, read-out: MIC (mcg/ml) of cefepime in presence of a compound of Formula (I) (8 mcg/ml)
  MIC: ≤ 0.06 µg/mL
[2]; 2 hours
  Bacterial count: 6.9 Log CFU/ml
[2]; 4 hours
  Bacterial count: 8.23 Log CFU/ml
[2]; 6 hours
  Bacterial count: 8.23 Log CFU/ml
[2]; [5]
  Change in bacterial count (in words): no decrease in bacterial count was observed
[3]; 2 hours
  Bacterial count: 6.17 Log CFU/ml
[3]; 4 hours
  Bacterial count: 7.11 Log CFU/ml
[3]; 6 hours
  Bacterial count: 8.69 Log CFU/ml
[3]; [5]
  Change in bacterial count (in words): no decrease in bacterial count was observed
[4]; agent alone, resistant strains of E. coli, K. pneumonia and P. aeruginosa
  MICs (range over the strains): 16 to 64 µg/mL
[4]; with compound of Formula (I) at 8 mcg/ml
  MIC values of cefepime in presence of the compound of Formula (I) (range over the strains): 0.015 to 1 µg/mL
